How the values were obtained:
Experiment in all cases: relative viability (nuclei count vs DMSO), 5 days (fraction); higher = more cells survive
Dactolisib + Navitoclax = compound: Cn1c(=O)n(-c2ccc(C(C)(C)C#N)cc2)c2c3cc(-c4cnc5ccccc5c4)ccc3ncc21 [Dactolisib] + CC1(C)CCC(c2ccc(Cl)cc2)=C(CN2CCN(c3ccc(C(=O)NS(=O)(=O)c4ccc(N[C@H](CCN5CCOCC5)CSc5ccccc5)c(S(=O)(=O)C(F)(F)F)c4)cc3)CC2)C1 [Navitoclax] (partner 0.5 µM)
Summary of the method: (§1)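 Five library-drug doses in √10 steps were combined with a fixed anchor-drug dose, or a single drug was given alone, by pin tool to lung cancer cell lines in 1536-well plates the day after seeding. Nuclei were stained and counted after 5 days. Relative viability is the nuclei count in treated wells over that in vehicle wells, taken as the median of duplicate plates.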

AZ505 + Phenformin = compound: C1CCC(CC1)N(CCNCCC2=C3C(=C(C=C2)O)NC(=O)CO3)C(=O)CCNCCC4=CC(=C(C=C4)Cl)Cl [AZ505] + N=C(N)NC(=N)NCCc1ccccc1 [Phenformin] (partner 250 µM)
Summary of the method: as §1

AZ505 + Trametinib = compound: C1CCC(CC1)N(CCNCCC2=C3C(=C(C=C2)O)NC(=O)CO3)C(=O)CCNCCC4=CC(=C(C=C4)Cl)Cl [AZ505] + CC(=O)Nc1cccc(-n2c(=O)n(C3CC3)c(=O)c3c(Nc4ccc(I)cc4F)n(C)c(=O)c(C)c32)c1 [Trametinib] (partner 0.02 µM)
Summary of the method: as §1

AZ505 + Decitabine = compound: C1CCC(CC1)N(CCNCCC2=C3C(=C(C=C2)O)NC(=O)CO3)C(=O)CCNCCC4=CC(=C(C=C4)Cl)Cl [AZ505] + Nc1ncn([C@H]2C[C@H](O)[C@@H](CO)O2)c(=O)n1 [Decitabine] (partner 2 µM)
Summary of the method: as §1

| Cell Line | relative viability (Dactolisib + Navitoclax; first compound 0.002 µM) | relative viability (Dactolisib + Navitoclax; first compound 0.006325 µM) | relative viability (Dactolisib + Navitoclax; first compound 0.02 µM) | relative viability (Dactolisib + Navitoclax; first compound 0.06325 µM) | relative viability (Dactolisib + Navitoclax; first compound 0.2 µM) | relative viability (AZ505 + Phenformin; first compound 0.08 µM) | relative viability (AZ505 + Phenformin; first compound 0.253 µM) | relative viability (AZ505 + Phenformin; first compound 0.8 µM) | relative viability (AZ505 + Phenformin; first compound 2.53 µM) | relative viability (AZ505 + Phenformin; first compound 8 µM) | relative viability (AZ505 + Trametinib; first compound 0.08 µM) | relative viability (AZ505 + Trametinib; first compound 0.253 µM) | relative viability (AZ505 + Trametinib; first compound 0.8 µM) | relative viability (AZ505 + Trametinib; first compound 2.53 µM) | relative viability (AZ505 + Trametinib; first compound 8 µM) | relative viability (AZ505 + Decitabine; first compound 0.08 µM) | relative viability (AZ505 + Decitabine; first compound 0.253 µM) | relative viability (AZ505 + Decitabine; first compound 0.8 µM) | relative viability (AZ505 + Decitabine; first compound 2.53 µM) | relative viability (AZ505 + Decitabine; first compound 8 µM) |
| --- | --- | --- | --- | --- | --- | --- | --- | --- | --- | --- | --- | --- | --- | --- | --- | --- | --- | --- | --- | --- |
| 201T | 1.18 | 1.22 | 1.14 | 1.17 | 0.943 | 0.446 | 0.445 | 0.501 | 0.468 | 0.477 | 0.688 | 0.716 | 0.722 | 0.705 | 0.711 | 0.857 | 0.863 | 0.812 | 0.877 | 0.824 |
| HCC-44 | 1.06 | 0.982 | 1 | 0.266 | 0.3 | 0.144 |  | 0.294 | 0.247 | 0.207 | 1.03 | 1.09 | 1.02 | 1.05 | 1.1 | 0.902 | 1.03 | 0.869 | 1.01 | 0.945 |
| NCI-H596 | 0.894 | 0.852 | 0.701 | 0.416 | 0.171 | 0.619 | 0.833 | 0.859 | 0.719 | 0.754 | 0.721 |  | 0.593 | 0.648 | 0.674 | 0.976 |  | 0.974 | 1.15 | 0.979 |
| H3255 | 0.724 | 0.488 | 0.426 | 0.458 | 0.176 | 0.303 | 0.377 | 0.379 | 0.321 | 0.38 |  | 0.604 | 0.543 | 0.578 | 0.611 |  | 0.607 | 0.583 | 0.6 | 0.925 |
| NCI-H647 | 1.1 | 0.964 | 0.685 | 0.295 | 0.348 | 0.574 | 0.314 | 0.479 | 0.488 | 0.702 | 0.478 | 0.509 | 0.404 | 0.379 | 0.467 | 0.356 | 0.451 | 0.372 | 0.373 | 0.379 |
| NCI-H2023 | 1.11 | 0.95 | 0.816 | 0.204 | 0.201 | 0.379 | 0.449 | 0.405 | 0.442 | 0.31 | 0.576 | 0.548 | 0.525 | 0.682 | 0.569 | 0.196 | 0.242 | 0.228 | 0.255 | 0.26 |
| NCI-H23 | 0.934 | 0.842 | 0.829 | 0.412 | 0.346 | 0.731 |  | 0.741 | 0.759 | 0.821 | 0.246 | 0.414 | 0.427 | 0.442 | 0.347 | 0.284 | 0.326 | 0.327 | 0.306 | 0.311 |
| NCI-H1944 | 1.06 | 0.986 | 0.933 | 0.526 | 0.36 | 0.197 | 0.184 | 0.233 | 0.193 | 0.21 | 0.377 | 0.391 | 0.414 | 0.444 | 0.386 | 0.436 | 0.465 | 0.414 | 0.475 | 0.418 |
| NCI-H1793 | 0.372 | 0.416 | 0.272 | 0.184 | 0.159 | 0.248 | 0.338 | 0.454 |  | 0.368 | 0.382 | 0.372 | 0.416 | 0.428 | 0.434 | 0.588 | 0.506 | 0.454 | 0.544 | 0.549 |
| NCI-H520 | 1.01 | 0.871 | 0.633 | 0.261 | 0.184 | 0.556 | 0.49 | 0.683 | 0.825 | 0.529 | 0.766 | 0.638 | 0.661 | 0.639 | 0.699 | 0.458 | 0.583 | 0.465 | 0.519 | 0.601 |
| NCI-H460 | 1.21 | 1.02 | 1.16 | 0.169 | 0.0342 | 0.448 | 0.534 | 0.48 | 0.482 | 0.551 | 0.218 | 0.174 | 0.065 | 0.126 | 0.0757 | 0.481 | 0.525 | 0.461 | 0.584 | 0.521 |
| EKVX | 0.961 | 0.98 | 0.815 | 0.782 | 0.346 | 0.21 | 0.245 | 0.238 | 0.198 | 0.251 |  | 0.326 | 0.321 | 0.414 | 0.397 |  | 0.35 | 0.318 | 0.349 | 0.349 |
| EPLC-272H | 1.31 | 1.01 | 0.937 | 0.592 | 0.365 |  | 0.283 | 0.304 | 0.241 | 0.324 | 0.308 | 0.292 | 0.307 | 0.277 | 0.269 | 0.35 | 0.352 | 0.305 | 0.343 | 0.354 |
| NCI-H1395 | 0.834 | 1.03 | 0.999 | 0.821 | 0.631 | 0.435 | 0.461 | 0.426 | 0.483 | 0.479 | 1.06 |  | 0.991 | 1.01 | 1.14 | 0.745 |  | 0.664 | 0.699 | 0.767 |

Source: the supplement of paper PMC10307832
